Consider two molecules from PMC12063173, “Metabolic Profiling of a Mediterranean-Inspired (Poly)phenol-Rich Mixture in the Brain: Perfusion Effect and In Vitro Blood–Brain Barrier Transport Validation” (Journal of Agricultural and Food Chemistry, 2025).

The structures appear in SMILES notation.

A short description of data set [1]: Targeted metabolomics (UPLC-ESI-QTOF) identification of metabolites in plasma, PB and NPB. As to conditions: P plasma, PB perfused brain, NPB nonperfused brain; 1-24 h after oral capsule.
Procedure: (§2) Adult male Sprague–Dawley rats weighing 250–300 g were purchased from the Animal Experimentation Service of the University of Murcia (Murcia, Spain). […] Based on the experimental design shown in Figure 1, one capsule was administered by gavage to each fasting animal. A total of 40 animals were used in the study. Thirty animals received a capsule containing a mixture of different Mediterranean food extracts, while ten animals received a capsule with microcrystalline cellulose and served as the control group. […] To minimize animal use in accordance with the 3Rs principle, two control animals were sacrificed at each time point (one PB and one NPB). These controls served to identify potential endogenous compounds or background signals not related to the extract administration. All animals were fasted overnight prior to gavage and euthanized with carbon dioxide.
(§3) Plasma samples were extracted with ACN:formic acid (98:2, v/v), centrifuged and evaporated in a speed vacuum concentrator (Savant SPD14 0DDA). The evaporated samples were resuspended in 100 μL MeOH and filtered through 0.22 μm regenerated cellulose filters (Minisart Sartorius, Madrid, Spain). Next, half of the animals at each time point were perfused with ice-cold phosphate-buffered saline, and the blood-free brain was dissected out immediately and stored at – 80 °C until analysis, as previously reported.[37],[48]
(§4) Approximately 400 mg of brain tissue (perfused or nonperfused) was weighed and extensively washed with cold PBS to avoid external blood contamination. After weighting, the samples were placed in 2 mL screw cap tubes. […] The evaporated samples were resuspended in 100 μL MeOH and filtered through 0.22 μm regenerated cellulose filters.
(§5) We performed a targeted metabolomic analysis using an ultrahigh-performance liquid chromatographic system (UPLC) coupled to a quadrupole-time-of-flight (QTOF) mass spectrometer. The phenolic compounds were separated using an Agilent Poroshell 120 column (100 mm × 3 mm, 2.7 μm) and a 5 μL injection volume. […] The flow rate was set constant at 0.4 mL/min. The spectra were acquired in the m/z range from 100 to 1100, in negative polarity mode and an acquisition rate of 1.5 spectra per second. Quantitative data were processed using the Mass HunterQualitative Analysis software (version B.08.00, Agilent). A target screening strategy was applied for the qualitative analysis of possible metabolites derived from the consumption of the Mediterranean blend. […] These compounds encompass derived metabolites conjugated (glucuronides, sulfates, and sulfoglucuronides, among others). The exact mass of the proposed compound was extracted using an extraction window of 0.01 m/z. Metabolite quantification was performed by integrating the peak areas of their extracted ion chromatograms (EICs). Compounds with available standards were quantified using calibration curves derived from the respective standards, while other metabolites were semiquantified based on their peak area values.
On the set-up of data set [2]: method as in doi:10.1016/j.jff.2015.09.019. The following applies: human, even upon high free ellagic acid intake; cited from earlier work.
A short description of data set [3]: Nonperfused brain (NPB) kinetics of phenolic metabolites after oral capsule. Type of data set: in vivo, Sprague–Dawley rats. Also on record: AUC0-t NPB: concentration or dose not given beside the values. The source says:
(§1) Statistical analyses were applied depending on the experimental context.

The test system of data set [4] is human brain microvascular endothelial cells (HBMECs). In words: In vitro blood–brain barrier transport (Transwell). As to conditions: HBMEC, mixtures at 2.5 μM final, 2 h. The data set is classed as in vitro ADME. Here is the method: The BBB transport model was established using human brain microvascular endothelial cells (HBMECs), following a methodology previously described.[49] Cells were maintained at 37 °C in a humidified environment with 5% CO2. HBMECs were seeded on 12-well Transwell inserts (12 mm, 0.4 μm pore polyester membrane; Corning, Madrid, Spain) and cultured for 6 days to form confluent monolayers suitable for transport studies. Transport assays were carried out in Hanks’ Balanced Salt Solution (HBSS) supplemented with 0.1% fetal bovine serum (FBS, v/v). The cells were exposed on the apical side to individual phenolic metabolites detected in the brain from the animal study, a representative mixture containing equal concentrations of these metabolites, or a physiological mixture reproducing their relative percentages as observed in the brain. All treatments were applied at a final concentration of 2.5 μM for 2 h (Supporting Information, Table S3). The integrity of the cell monolayers was confirmed by measuring transendothelial electrical resistance (TEER) at the start of the experiment (0 h) and after the last time point (2 h) using an EVOM2 Epithelial Volt Ohm Meter (World Precision Instruments, Inc., USA).
Samples from the apical and basolateral compartments were stored at −80 °C for further analysis. Transport of the compounds was evaluated using UPLC-qTOF as described elsewhere,[38] and transendothelial permeability expressed as a percentage of the ratio between the concentration in the basolateral compartment relative to the total concentration in both compartments.
Finally, one-way ANOVA with Tukey’s multiple comparisons test was exclusively applied to in vitro BBB transport experiments. The three tested conditions for each compound (individual compound, a mixture containing equal concentrations of these compounds, or a physiological mixture reproducing their relative percentages as observed in the brain were evaluated. Plots were performed using GraphPad 9.0 (GraphPad Software, Boston, Massachusetts, USA). Statistical significance was set at P < 0.05.
Figure 3 Transport efficiency of phenolic metabolites across the BBB. Human brain microvascular endothelial cells (HBMEC) were seeded onto semipermeable membranes. […] Detailed composition of both mixtures is given in the Supporting Information, Table S3. Media from the upper and lower compartments were collected, and endothelial transport was evaluated by UPLC-qTOF-MS. The transport percentage (%) was determined by the concentration ratio in the lower compartment to the total concentration (upper and lower compartments). All values are presented as mean ± SD from three independent experiments.

The nature of data set [5]: Perfused brain (PB) kinetics of phenolic metabolites after oral capsule. The data set is classed as in vivo, Sprague–Dawley rats. Set-up: AUC0-t PB: concentration or dose not given beside the values. As to conditions: perfused brain, oral capsule, 0-24 h, n = 3 per time point.
Source text: as §1

Data set [6] is described as follows: Plasma pharmacokinetics of phenolic metabolites after oral capsule of (poly)phenol-rich Mediterranean extract mixture. The following applies: male, Sprague-Dawley, rat, po, 22 mg extract blend per capsule, one capsule per animal.
Procedure: (§6) Adult male Sprague–Dawley rats weighing 250–300 g were purchased from the Animal Experimentation Service of the University of Murcia (Murcia, Spain). […] Animals were maintained in a temperature-controlled environment with a 12 h light-dark cycle. […] Based on the experimental design shown in Figure 1, one capsule was administered by gavage to each fasting animal. A total of 40 animals were used in the study. Thirty animals received a capsule containing a mixture of different Mediterranean food extracts, while ten animals received a capsule with microcrystalline cellulose and served as the control group. At each time point (1, 3, 6, 8, and 24 h postadministration), six animals from the extract group were sacrificed, three with transcardial perfusion using saline (PB) and three without perfusion (NPB), to assess the distribution of extract-derived metabolites in plasma and brain. To minimize animal use in accordance with the 3Rs principle, two control animals were sacrificed at each time point (one PB and one NPB). […] All animals were fasted overnight prior to gavage and euthanized with carbon dioxide.
(§7) Blood samples collected by cardiac puncture in sodium heparin tubes at each time point after sacrifice were immediately centrifuged at 14,000 × g for 15 min at 4 °C, and the plasma was stored at −80 °C until their analysis. Plasma samples were extracted with ACN:formic acid (98:2, v/v), centrifuged and evaporated in a speed vacuum concentrator (Savant SPD14 0DDA). The evaporated samples were resuspended in 100 μL MeOH and filtered through 0.22 μm regenerated cellulose filters (Minisart Sartorius, Madrid, Spain).
(§8) We performed a targeted metabolomic analysis using an ultrahigh-performance liquid chromatographic system (UPLC) coupled to a quadrupole-time-of-flight (QTOF) mass spectrometer. The phenolic compounds were separated using an Agilent Poroshell 120 column (100 mm × 3 mm, 2.7 μm) and a 5 μL injection volume. The mobile phases used were 0.1% formic acid in water (A) and 0.1% formic acid in ACN (B), and the gradient was: 0–3 min, 5–15% B; 3–11 min, 15–30% B; 11–14 min, 30–50% B, 14–16 min, 50–90% B. Finally, the B content was decreased to the initial conditions (5%) in 1 min, and the column re-equilibrated for 4 min. The flow rate was set constant at 0.4 mL/min. The spectra were acquired in the m/z range from 100 to 1100, in negative polarity mode and an acquisition rate of 1.5 spectra per second.
The conditions of data set [7]: rat, in vivo.
Procedure: as §2, §3, §4, §5
The next data set can be described thus: in vivo. As to conditions: male, Sprague-Dawley, rat, po.
The mark [8] stands for this setting: nonperfused brain, oral capsule, 0-24 h, n = 3 per time point.

Procedure for in vivo: as §6, §7, §8

For `O=c1oc2c(O)c(O)cc3c(=O)oc4c(O)c(O)cc1c4c23` [ellagic acid], the occurrence result in data set [1] is reported as “PB, NPB, P”. Moreover, the “free ellagic acid concentration in plasma” value in data set [2] is recorded as at most 100 nM. In addition, the “concentration in NPB relative to PB” value in data set [3] (NPB versus PB) is on record as 9 fold. Moreover, the time of peak concentration (Tmax) in data set [3] (male, Sprague-Dawley, rat, 22 mg extract blend per capsule, one capsule per animal, nonperfused brain, oral capsule, 0-24 h, n = 3 per time point) came out at 15 ± 13 h. In data set [3] (male, Sprague-Dawley, rat, 22 mg extract blend per capsule, one capsule per animal, nonperfused brain, oral capsule, 0-24 h, n = 3 per time point, read-out: MRT0-t NPB), the MRT last is 56.9 h. Also, in data set [3] (male, Sprague-Dawley, rat, 22 mg extract blend per capsule, one capsule per animal, nonperfused brain, oral capsule, 0-24 h, n = 3 per time point, read-out: T1/2 NPB (converted)), the half-life was 36.3 h. Also, in data set [3] (setting [8]), the “AUC0-t NPB” value was determined as 7.1 ± 7.5 pmol·h/g and the “Cmax NPB” value was 0.9 ± 0.9 pmol/g tissue. Moreover, the “transport efficiency in MIXperc compared with MIXeq” value in data set [4] was “significantly higher transport efficiencies”. Moreover, the Tmax in data set [5] (male, Sprague-Dawley, rat, 22 mg extract blend per capsule, one capsule per animal) turned out to be 16 ± 11 h. For the same molecule, in data set [5], the “AUC0-t PB” value is 1.5 ± 1.1 pmol·h/g and the “Cmax PB” value is listed as 0.1 ± 0.08 pmol/g tissue. Moreover, in data set [6], the AUC(0-t) came to 0.0141 ± 0.0074 µM·h, the peak concentration (Cmax) was found to be 1.1 ± 0.8 nM, the MRT last was 103 h and the time of peak concentration (Tmax) is 10 ± 12 h.

Regarding `O=S(=O)(O)Oc1ccc(C=Cc2cc(O)cc(O)c2)cc1` [resveratrol 4’-O-sulfate], in data set [1], the occurrence entry is reported as “restricted to plasma”. Besides, in data set [7], the “concentration–time profile in brain (Figure 2)” value is “Not detected”. Further, in the data set “in vivo”, the area under the curve AUC(0-t) came to 0.026 ± 0.027 µM·h, the Cmax came to 2.9 ± 2.8 nM, the MRT last turned out to be 10.7 h and the time of peak concentration (Tmax) is 7.3 ± 1.2 h. Further, in the data set “in vivo”, the half-life was 5.6 h.

A word on the Tmax: it is the time at which the peak concentration occurs. The term AUC(0-t) denotes the area under the concentration-time curve up to a stated or last time point. As usually defined, the Cmax is the peak of the concentration-time curve.
